Laboratory results as given in US9505749B2, “Quinazolinone compounds and derivatives thereof” (AMGEN INC., priority 2012, dated 2016).
Like-named read-outs stand apart in the source and are kept apart here.

Experiments:
[1] = molecular target: PARP1 (Homo sapiens (Human), UniProt P09874); assay: PARP1 biochemical assay (Trevigen kit)
From the text: PARP1 biochemical assay was purchased as a kit from Trevigen (cat.#4676-096-K) and used per manufacturers recommendations.

[2] = tested on: Axin2 accumulation in SW480 cells; assay: Axin2 384 immunofluorescence assay; type: cell-based; details: Homo sapiens, read-out: Axin2 384 IF EC50
[3] = tested on: total β-catenin in SW480 colorectal cells; assay: Total β-catenin MSD 96-well plate assay for SW480 cells; details: Homo sapiens, SW480, read-out: SW480-Total beta-catenin (TBC) IC50 IP
[4] = molecular target: PARP2 (Homo sapiens (Human), UniProt Q9UGN5); assay: PARP2 biochemical assay (BPS kit)
PARP2, sequence (Q9UGN5 whole entry): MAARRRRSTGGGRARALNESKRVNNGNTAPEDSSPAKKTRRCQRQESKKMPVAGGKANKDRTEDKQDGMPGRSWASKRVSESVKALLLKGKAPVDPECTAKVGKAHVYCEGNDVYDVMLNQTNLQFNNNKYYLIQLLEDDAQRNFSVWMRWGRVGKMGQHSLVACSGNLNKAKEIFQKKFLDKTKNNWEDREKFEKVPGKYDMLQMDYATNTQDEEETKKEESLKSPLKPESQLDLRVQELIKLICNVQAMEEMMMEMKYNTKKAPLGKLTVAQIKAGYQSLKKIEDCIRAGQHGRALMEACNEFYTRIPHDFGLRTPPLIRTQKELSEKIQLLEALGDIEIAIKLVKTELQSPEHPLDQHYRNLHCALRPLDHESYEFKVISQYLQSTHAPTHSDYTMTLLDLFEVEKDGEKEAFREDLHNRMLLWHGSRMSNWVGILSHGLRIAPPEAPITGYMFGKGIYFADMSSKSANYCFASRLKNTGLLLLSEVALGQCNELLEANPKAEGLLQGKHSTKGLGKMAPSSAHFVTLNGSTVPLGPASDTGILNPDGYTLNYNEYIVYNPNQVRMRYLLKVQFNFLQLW

[5] = molecular target: 6×HIS-tankyrase1 (1091-1325) (Homo sapiens (Human), UniProt O95271); assay: Tankyrase 1 biochemical assay (AlphaLisa, PARsylation); details: 400 nM NAD, 60 minutes at RT; read-out: TNKS1 IC50
6×HIS-tankyrase1 (1091-1325), sequence (O95271 1091-1325): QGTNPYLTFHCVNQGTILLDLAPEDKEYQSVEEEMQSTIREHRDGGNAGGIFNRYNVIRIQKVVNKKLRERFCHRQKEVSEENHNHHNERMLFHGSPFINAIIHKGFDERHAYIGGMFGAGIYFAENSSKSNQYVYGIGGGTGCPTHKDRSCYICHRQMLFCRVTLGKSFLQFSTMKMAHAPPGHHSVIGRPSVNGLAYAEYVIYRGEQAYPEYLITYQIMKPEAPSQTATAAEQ

[6] = tested on: 8×TCF promoter-driven Firefly luciferase (Wnt reporter) in DLD-1 colorectal cells; assay: DLD-1-STF assay, constitutively activated Wnt pathway reporter; type: cell-based; details: Homo sapiens
Procedure: DLD-1 colorectal cells engineered with an 8×TCF promoter-driven Firefly (FF) luciferase gene (Wnt reporter) along with an EF1a promoter-driven Renilla (RN) luciferase gene (control reporter) were used to measure the potency of tankyrase compounds in the context of the constitutively activated Wnt pathway due to mutated APC in colorectal cancer cells. The engineered DLD-1 cells were plated (45 μL) at a density of 10,000 cells/well in black, clear-bottom, 96-well View plates (PerkinElmer) in normal growth medium (RPMI with 10% FBS with no antibiotics). Tankyrase inhibitors (5 μL) were transferred to cells from a three-fold serially diluted compound plate. A 10-point dilution series was tested starting at a concentration (10 μM final concentration in assay). Column 6 contained only DMSO and served as the “HI” control. A potent Tankyrase inhibitor was used at a final concentration of 10 uM in column 12 which served as the “LO” control. […] The Dual-Glo Reagents (Promega) were added as directed by manufacturer to assay the FF and RN luciferase activity. Luciferase activity was measures using the EnVision multilabel plate reader (PerkinElmer).

[7] = molecular target: 6×HIS-tankyrase 2 (946-1162) (Homo sapiens (Human), UniProt Q9H2K2); assay: Tankyrase 2 biochemical assay (AlphaLisa, PARsylation); details: 250 nM NAD; read-out: TNKS2 IC50
6×HIS-tankyrase 2 (946-1162), sequence (Q9H2K2 946-1162): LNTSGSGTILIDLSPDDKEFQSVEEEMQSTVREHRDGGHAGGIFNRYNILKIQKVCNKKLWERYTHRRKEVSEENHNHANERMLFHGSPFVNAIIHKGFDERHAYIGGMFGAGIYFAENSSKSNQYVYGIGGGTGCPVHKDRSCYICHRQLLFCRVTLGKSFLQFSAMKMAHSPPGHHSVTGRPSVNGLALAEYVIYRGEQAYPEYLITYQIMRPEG

[8] = DLD-1 cells, 40 to 48 hours, read-out: DLD1-STF-FF/RL*100 IC50
[9] = DLD-1, read-out: DLD1-STF-FF/RL*100 IC50

PARP1, sequence (P09874 whole entry): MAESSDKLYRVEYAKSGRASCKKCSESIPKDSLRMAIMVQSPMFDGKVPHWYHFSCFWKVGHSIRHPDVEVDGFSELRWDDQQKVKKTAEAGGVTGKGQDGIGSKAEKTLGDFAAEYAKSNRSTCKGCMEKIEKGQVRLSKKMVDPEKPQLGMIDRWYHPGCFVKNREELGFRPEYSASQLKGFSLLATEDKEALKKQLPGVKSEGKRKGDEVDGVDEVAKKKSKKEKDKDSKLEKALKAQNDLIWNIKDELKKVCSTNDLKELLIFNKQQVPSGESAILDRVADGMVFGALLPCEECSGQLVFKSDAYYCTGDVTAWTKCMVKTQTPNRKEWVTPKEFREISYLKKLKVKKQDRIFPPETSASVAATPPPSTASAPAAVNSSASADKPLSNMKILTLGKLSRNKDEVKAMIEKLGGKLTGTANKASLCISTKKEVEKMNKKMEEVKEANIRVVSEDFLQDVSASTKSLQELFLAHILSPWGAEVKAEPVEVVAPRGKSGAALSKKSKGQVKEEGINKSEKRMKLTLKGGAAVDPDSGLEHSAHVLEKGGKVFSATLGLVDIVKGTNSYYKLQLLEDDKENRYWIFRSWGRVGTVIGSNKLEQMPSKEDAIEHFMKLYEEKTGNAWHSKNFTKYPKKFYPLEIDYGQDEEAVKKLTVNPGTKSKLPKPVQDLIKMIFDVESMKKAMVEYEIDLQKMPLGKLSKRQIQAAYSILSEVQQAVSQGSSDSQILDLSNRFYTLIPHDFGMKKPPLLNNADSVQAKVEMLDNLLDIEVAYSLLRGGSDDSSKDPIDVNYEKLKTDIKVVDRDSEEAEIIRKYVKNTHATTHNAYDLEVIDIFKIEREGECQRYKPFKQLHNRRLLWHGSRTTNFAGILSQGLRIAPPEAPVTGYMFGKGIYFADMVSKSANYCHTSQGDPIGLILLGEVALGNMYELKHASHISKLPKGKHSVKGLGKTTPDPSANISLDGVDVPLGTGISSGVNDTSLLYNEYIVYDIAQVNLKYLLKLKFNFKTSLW

| SMILES | IC50 [1] [nM] | EC50 ([2]; SW480 cells, 24 hours) [nM] | IC50 [3] [nM] | IC50 [4] [nM] | IC50 [5] [nM] | IC50 [6, 8] [nM] | IC50 [7] [nM] | IC50 [6, 9] [nM] | EC50 ([2]; SW480, 24 h) [nM] |
| --- | --- | --- | --- | --- | --- | --- | --- | --- | --- |
| N#Cc1ccc(O[C@H]2CC[C@H](NC(=O)CCCc3nc4ccccc4c(=O)[nH]3)CC2)cc1Cl [Example 64, N-(trans-4-(3-chloro-4-cyanophenoxy)cyclohexyl)-4-(4-oxo-3,4-dihydro-2-quinazolinyl)butanamide] | 257 | 60.9 | 26.6 | 288 | 1.05 | 1.26 | 0.52 |  |  |
| N#Cc1ccc(O[C@H]2CC[C@H](NC(=O)CCSc3nc4ccccc4c(=O)[nH]3)CC2)cc1 [Example 106, N-(trans-4-(4-cyanophenoxy)cyclohexyl)-3-((4-oxo-3,4-dihydroquinazolin-2-yl)thio) propanamide] |  | 4.01 | 1.9 | 1760 |  |  |  | 0.275 |  |
| O=C(CCSc1nc2ccccc2c(=O)[nH]1)N[C@H]1CC[C@H](c2nnc(-c3ccccc3)o2)CC1 [Example 97, 3-((4-oxo-3,4-dihydroquinazolin-2-yl)thio)-N-(trans-4-(5-phenyl-1,3,4-oxadiazol-2-yl)cyclohexyl)propanamide] |  | 3.88 | 3.69 | 2450 |  |  |  | 0.608 |  |
| O=C(CCCc1nc2ccccc2c(=O)[nH]1)N[C@H]1CC[C@H](n2c(=O)[nH]c3cc(Cl)ccc32)CC1 [Example 74, N-((1r,4r)-4-(5-chloro-2-oxo-2,3-dihydro-1H-benzo[d]imidazol-1-yl)cyclohexyl)-4-(4-oxo-3,4-dihydroquinazolin-2-yl)butanamide trifluoroacetic acid] |  |  | 6.62 |  |  | 1.59 |  |  | 5.34 |
| O=C(CCCSc1nc2ccccc2c(=O)[nH]1)N[C@H]1CC[C@H](c2nnc(-c3ccccc3)o2)CC1 [Example 110, 4-((4-oxo-3,4-dihydroquinazolin-2-yl)thio)-N-((1r,4r)-4-(5-phenyl-1,3,4-oxadiazol-2-yl)cyclohexyl)butanamide] | 376 | 132 | 104 | 1440 |  |  |  | 1.78 |  |
| O=C(CCSc1nc2c(c(=O)[nH]1)CCCC2)N[C@H]1CC[C@H](c2nnc(-c3ccccc3)o2)CC1 [Example 115, 3-((4-oxo-3,4,5,6,7,8-hexahydroquinazolin-2-yl)thio)-N-(trans-4-(5-phenyl-1,3,4-oxadiazol-2-yl)cyclohexyl)propanamide] | 3860 | 14.4 | 11 | 1120 |  |  |  | 1.3 |  |
| O=C(CCSc1nc2ccccc2c(=O)[nH]1)N[C@H]1CC[C@H](Oc2ccccn2)CC1 [Example 107, 3-((4-oxo-3,4-dihydroquinazolin-2-yl)thio)-N-((1 r,4r)-4-(pyridin-2-yloxy)cyclohexyl) propanamide] | > 85000 | 16.6 | 15.4 | 3350 |  |  |  | 1.33 |  |
| N#Cc1ccc(O[C@H]2CC[C@H](NC(=O)CCSc3nc4ccccc4c(=O)[nH]3)CC2)cc1Cl [Example 114, N-((1r,4r)-4-(3-chloro-4-cyanophenoxy)cyclohexyl)-3-((4-oxo-3,4-dihydroquinazolin-2-yl)thio)propanamide] | > 85000 | 8.42 | 8.08 |  |  |  |  | 1.08 |  |
| O=C(CCSc1nc2ccccc2c(=O)[nH]1)N[C@H]1CC[C@H](Oc2ccncc2)CC1 [Example 108, 3-((4-oxo-3,4-dihydroquinazolin-2-yl)thio)-N-((1 r,4r)-4-(pyridin-4-yloxy)cyclohexyl) propanamide] | 2760 | 6.79 | 6.9 | 3220 |  |  |  | 0.682 |  |
| N#Cc1cc(O[C@H]2CC[C@H](NC(=O)CCSc3nc4ccccc4c(=O)[nH]3)CC2)ccc1Cl [Example 113, N-((1r,4r)-4-(4-chloro-3-cyanophenoxy)cyclohexyl)-3-((4-oxo-3,4-dihydroquinazolin-2-yl)thio)propanamide] | > 85000 | 56 | 24.2 |  |  |  |  | > 50 |  |
| O=C(CCCc1nc2ccccc2c(=O)[nH]1)N1CCC(c2nnc(-c3cnccn3)o2)CC1 [Example 14, 2-(4-oxo-4-(4-(5-(2-pyrazinyl)-1,3,4-oxadiazol-2-yl)-1-piperidinyl)butyl)-4(3H)-quinazolinone] | 8540 | 1250 | 837 | 2180 | 79.7 |  | 15.5 |  |  |
| O=C(CCCc1nc2ccccc2c(=O)[nH]1)N[C@H]1CC[C@H](c2nnc(-c3ccncc3)o2)CC1 [Example 33, 4-(4-oxo-3,4-dihydro-2-quinazolinyl)-N-(trans-4-(5-(4-pyridinyl)-1,3,4-oxadiazol-2-yl)cyclohexyl)butanamide] | 2840 | 25.7 | 34.8 | 1140 | 0.453 |  | 0.341 |  |  |
| O=C(CCSCc1nc2ccccc2c(=O)[nH]1)N[C@H]1CC[C@H](c2nnc(-c3ccccc3)o2)CC1 [Example 92, 3-(((4-oxo-3,4-dihydro-2-quinazolinyl)methyl)sulfanyl)-N-(trans-4-(5-phenyl-1,3,4-oxadiazol-2-yl)cyclohexyl)propanamide] | 2270 | 287 | 145 | 2420 | 15.8 |  | 4.44 |  |  |
| O=C(CCSc1nc2ccccc2c(=O)[nH]1)N[C@H]1CC[C@H](Oc2cccc(Cl)c2)CC1 [Example 112, N-((1r,4r)-4-(3-chlorophenoxy)cyclohexyl)-3-((4-oxo-3,4-dihydroquinazolin-2-yl)thio) propanamide] | > 85000 | 105 | 120 |  |  |  |  | > 50 |  |
| O=C(CCCc1nc2ccccc2c(=O)[nH]1)N1CCN(c2nsc3ccccc23)CC1 [Example 69, 2-(4-(4-(1,2-benzisothiazol-3-yl)-1-piperazinyl)-4-oxobutyl)-4(3H)-quinazolinone] | 1760 | 686 | 2560 | 317 | 407 |  | 451 |  |  |
| O=C(CCCc1nc2ccccc2c(=O)[nH]1)N[C@H]1CC[C@H](Oc2cccnc2)CC1 [Example 59, 4-(4-oxo-3,4-dihydro-2-quinazolinyl)-N-(trans-4-(3-pyridinyloxyl)cyclohexyl)butanamide] | 1900 | 951 | 208 | 371 | 11.8 |  | 2.39 |  |  |
